# Assay results from patent publication US20050196466A1, “Process for inhibiting cell proliferation” (Pharmacyclics, Inc., priority 2004, published 2005).
# What was measured:
# [1] = test system: A549 cells; assay: MTT assay, plateau phase A549 cells treated with 1-hydroxypyridine-2-thione, MGd and zinc; type: cell-based, human
# Excerpt: (§1) Final mannitol concentration was 0.31% in all wells.
# [2] = test system: Ramos cells; assay: Cytotoxicity by propidium iodide uptake, flow cytometry; settings: agent alone
# Procedure: Gated cells with fluorescence at 585 nm from two cultures are shown for each time point. Error bars indicate standard deviation.
# In other experiments (FIG. 11), Ramos cells grown in T-25 flasks were treated with a compound of Formula I (where M=Gd) (10 or 50 μM) and zinc (25 or 50 μM) for 1-2 days, Coulter counted, and analyzed by flow cytometry using propidium iodide.
# [3] = test system: A549 cells; assay: MTT reduction proliferation assay, microtiter plate, A549 cells; type: cell-based, human; settings: zinc by itself at 100 μM
# Excerpt: as §1
SMILES,"effect on A549 cells ([1]; ZnHPT by itself at 0.625 μM, formed in situ from zinc acetate and 1-hydroxypyridine-2-thione, after one day (FIG. 12))",cytotoxic dose of the zinc complex of 1-hydroxypyridine-2-thione ([1]; in the presence of a compound of formula 1),cytotoxicity as assessed by flow cytometry after staining with propidium iodide [2],effect on A549 cells ([3]; after one day),effect on A549 cells ([3]; after three days)
"c1cc[n+]2c(c1)[S][Zn]1([O]2)[O][n+]2ccccc2[S]1 [ZnHPT, Zinc complex of 1-hydroxypyridine-2-thione]",no significant effect,lowered,,,
"CC(=O)[O-].CC(=O)[O-].[Zn+2] [zinc, zinc acetate]",,,did not increase cytotoxicity,no significant effect,no significant effect
